Measured values: US20250215029A1 (Recludix Pharma, Inc., priority 2022, published 2025)
pIC50: −log10 of the molar value.

biological target: T1, pY705-STAT3 in PBMC (Homo sapiens, UniProt P40763); assay: MSD-pSTAT-PBMC Assay (pSTAT3, IL-6 stimulated); type: cell-based; settings: PBMC, compound 3 hrs, then 10 ng/mL IL-6 for 10 min; Table 115; read-out: STAT3
T1 construct: Cryopreserved Peripheral Blood Mononuclear Cells (PBMC) are from AllCells; host or cells: cryopreserved PBMC
Method in brief: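 Cells are preincubated with compound for 3 hrs, then stimulated for 10 min, IL-4 at 1 ng/mL driving STAT6 phosphorylation and IL-6 at 10 ng/mL driving STAT3. Phospho-STAT in lysates is quantified by MSD immunoassay, and IC50 is fitted after subtracting unstimulated wells.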

T1 sequence (P40763 whole entry): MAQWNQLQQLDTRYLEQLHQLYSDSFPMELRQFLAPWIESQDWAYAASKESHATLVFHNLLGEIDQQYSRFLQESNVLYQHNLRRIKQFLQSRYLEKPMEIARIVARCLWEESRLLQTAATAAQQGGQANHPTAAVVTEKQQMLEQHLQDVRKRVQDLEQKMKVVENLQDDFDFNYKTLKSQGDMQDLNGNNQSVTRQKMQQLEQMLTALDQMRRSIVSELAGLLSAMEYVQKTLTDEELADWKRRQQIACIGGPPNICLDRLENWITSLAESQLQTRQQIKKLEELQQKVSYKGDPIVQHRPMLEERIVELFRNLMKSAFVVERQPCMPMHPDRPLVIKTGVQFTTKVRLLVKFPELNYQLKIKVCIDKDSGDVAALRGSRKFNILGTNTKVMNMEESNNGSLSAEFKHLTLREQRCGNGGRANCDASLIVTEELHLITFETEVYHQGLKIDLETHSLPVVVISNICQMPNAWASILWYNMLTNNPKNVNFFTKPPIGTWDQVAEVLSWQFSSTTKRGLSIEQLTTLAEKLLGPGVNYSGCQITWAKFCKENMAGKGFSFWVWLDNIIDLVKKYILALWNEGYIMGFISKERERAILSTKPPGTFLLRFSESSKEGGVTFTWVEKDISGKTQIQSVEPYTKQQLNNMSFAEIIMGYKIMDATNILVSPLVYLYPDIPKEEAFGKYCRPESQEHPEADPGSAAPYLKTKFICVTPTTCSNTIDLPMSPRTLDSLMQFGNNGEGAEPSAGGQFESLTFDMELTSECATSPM

`CCCOC(=O)[C@H](C)NP(=O)(Oc1ccccc1)[C@H](F)c1ccc2sc(C(=O)N[C@H]3CCC[C@H]4CC[C@@H](C(=O)N5CC(c6cncnc6N6CCOCC6)C5)N4C3=O)cc2c1` (stereo partly drawn) [Compound 1067, propyl (((S)-fluoro(2-(((3S,6S,9aS)-3-(3-(4-morpholinopyrimidin-5-yl)azetidine-1-carbonyl)-5-oxooctahydro-1H-pyrrolo[1,2-a]azepin-6-yl)carbamoyl)benzo [b]thiophen-5-yl)methyl)(phenoxy)phosphoryl)-L-alaninate] and `CCCOC(=O)[C@H](C)NP(=O)(Oc1ccccc1)[C@H](F)c1ccc2sc(C(=O)N[C@H]3CCC[C@H]4CC[C@@H](C(=O)N5CC(c6cnccc6N6CCC6)C5)N4C3=O)cc2c1` (stereo partly drawn) [Compound 1024, propyl (((S)-(2-(((3S,6S,9aS)-3-(3-(4-(azetidin-1-yl)pyridin-3-yl)azetidine-1-carbonyl)-5-oxooctahydro-1H-pyrrolo[1,2-a]azepin-6-yl)carbamoyl)benzo [b]thiophen-5-yl)fluoromethyl) (phenoxy)phosphoryl)-L-alaninate] fall in the same range of pIC50: 6.00 to 7.00 for the first, 6.00 to 7.00 for the second.

`CC[C@@H](C)OC(=O)[C@H](C)NP(=O)(Cc1ccc2sc(C(=O)N[C@H]3CCC[C@H]4CC[C@@H](C(=O)N5CC(c6cccnc6)C5)N4C3=O)cc2c1)Oc1ccccc1` (stereo partly drawn) [Compound 1016, (R)-sec-butyl (((2-(((3S,6S,9aS)-5-oxo-3-(3-(pyridin-3-yl)azetidine-1-carbonyl)octahydro-1H-pyrrolo[1,2-a]azepin-6-yl)carbamoyl)benzo [b]thiophen-5-yl)methyl)(phenoxy)phosphoryl)-L-alaninate] and `CC[C@H](C)OC(=O)[C@H](C)NP(=O)(Cc1ccc2sc(C(=O)N[C@H]3CCC[C@H]4CC[C@@H](C(=O)N5CC(c6cccnc6)C5)N4C3=O)cc2c1)Oc1ccccc1` (stereo partly drawn) [Compound 276, (S)-sec-butyl (((2-(((3S,6S,9aS)-5-oxo-3-(3-(pyridin-3-yl)azetidine-1-carbonyl)octahydro-1H-pyrrolo[1,2-a]azepin-6-yl)carbamoyl)benzo [b]thiophen-5-yl)methyl)(phenoxy)phosphoryl)-L-alaninate] fall in the same range of pIC50: 6.00 to 7.00 for the first, 6.00 to 7.00 for the second.

Compared with `CC[C@H](NP(=O)(Cc1ccc2sc(C(=O)N[C@H]3CCC[C@H]4CC[C@@H](C(=O)N5CC(c6cccnc6)C5)N4C3=O)cc2c1)Oc1ccccc1)C(=O)OCC(C)C` (stereo partly drawn) [Compound 947, isobutyl (2S)-2-((((2-(((3S,6S,9aS)-5-oxo-3-(3-(pyridin-3-yl)azetidine-1-carbonyl)octahydro-1H-pyrrolo[1,2-a]azepin-6-yl)carbamoyl)benzo [b]thiophen-5-yl)methyl)(phenoxy)phosphoryl)amino) butanoate], `CCCOC(=O)[C@H](C)NP(=O)(Oc1ccccc1)C(C)c1ccc2sc(C(=O)N[C@H]3CCC[C@H]4CC[C@@H](C(=O)N5CC(c6cccnc6)C5)N4C3=O)cc2c1` (stereo partly drawn) [Compound 435, propyl ((1-(2-(((3S,6S,9aS)-5-oxo-3-(3-(pyridin-3-yl)azetidine-1-carbonyl)octahydro-1H-pyrrolo[1,2-a]azepin-6-yl)carbamoyl)benzo [b]thiophen-5-yl)ethyl)(phenoxy)phosphoryl)-L-alaninate] is lower in pIC50: > 7.00 for the first, 6.00 to 7.00 for the second.

First: CCCOC(=O)[C@@H]1CCCN1P(=O)(Cc1ccc2sc(C(=O)N[C@H]3CCC[C@H]4CC[C@@H](C(=O)N5CC(c6cccnc6)C5)N4C3=O)cc2c1)N1CCC[C@H]1C(=O)OCCC [Compound 310, dipropyl (((2-(((3S,6S,9aS)-5-oxo-3-(3-(pyridin-3-yl)azetidine-1-carbonyl)octahydro-1H-pyrrolo[1,2-a]azepin-6-yl)carbamoyl)benzo [b]thiophen-5-yl)methyl)phosphoryl) (S)-di-L-prolinate]
Second: CCCOC(=O)[C@H](C)NP(=O)(Cc1ccc2sc(C(=O)N[C@H]3CCC[C@H]4CC[C@@H](C(=O)N5CC(c6cnccc6N6CC[C@H]6COC)C5)N4C3=O)cc2c1)Oc1ccccc1 (stereo partly drawn) [Compound 301, propyl (((2-(((3S,6S,9aS)-3-(3-(4-((S)-2-(methoxymethyl)azetidin-1-yl)pyridin-3-yl)azetidine-1-carbonyl)-5-oxooctahydro-1H-pyrrolo[1,2-a]azepin-6-yl)carbamoyl)benzo [b]thiophen-5-yl)methyl)(phenoxy)phosphoryl)-L-alaninate]
The pIC50 of the first is lower: 6.00 to 7.00 for the first, > 7.00 for the second.

Compared with `CCCOC(=O)[C@H](C)NP(=O)(Cc1ccc2sc(C(=O)N[C@H]3CCC[C@H]4CC[C@@H](C(=O)N5CC(c6cnc(OC)cc6F)C5)N4C3=O)cc2c1)Oc1ccccc1` (stereo partly drawn) [Compound 271, propyl (((2-(((3S,6S,9aS)-3-(3-(4-fluoro-6-methoxypyridin-3-yl)azetidine-1-carbonyl)-5-oxooctahydro-1H-pyrrolo[1,2-a]azepin-6-yl)carbamoyl)benzo [b]thiophen-5-yl)methyl)(phenoxy)phosphoryl)-L-alaninate], `CCCOC(=O)[C@H](C)N[P@](=O)(Oc1ccccc1)[C@H](F)c1ccc2sc(C(=O)N[C@H]3CCC[C@H]4CC[C@@H](C(=O)N5CC(c6cnccc6F)C5)N4C3=O)cc2c1` (single isomer, unassigned) [Compound 998] is higher in pIC50: 6.00 to 7.00 for the first, > 7.00 for the second. The second is the more potent here.

First: CCCOC(=O)[C@H](C)NP(=O)(Oc1ccccc1)[C@@H](F)c1ccc2sc(C(=O)N[C@H]3CCC[C@H]4CC[C@@H](C(=O)N5CC(c6cncc(F)c6O)C5)N4C3=O)cc2c1 (stereo partly drawn) [Compound 1060, propyl (((R)-fluoro(2-(((3S,6S,9aS)-3-(3-(5-fluoro-4-hydroxypyridin-3-yl)azetidine-1-carbonyl)-5-oxooctahydro-1H-pyrrolo[1,2-a]azepin-6-yl)carbamoyl)benzo [b]thiophen-5-yl)methyl)(phenoxy)phosphoryl)-L-alaninate]
Second: CCCOC(=O)[C@H](C)N[P@@](=O)(Oc1ccccc1)[C@H](F)c1ccc2sc(C(=O)N[C@H]3CCC[C@H]4CC[C@@H](C(=O)N5CC(c6cnccc6C)C5)N4C3=O)cc2c1 (single isomer, unassigned) [Compound 1049]
The pIC50 of the first is lower: 6.00 to 7.00 for the first, > 7.00 for the second.

`COc1ccncc1C1CN(C(=O)[C@@H]2CC[C@@H]3CCC[C@H](NC(=O)c4cc5cc([C@@H](F)[P@](=O)(N[C@@H](C)C(=O)OCC(C)(C)C)Oc6ccccc6)ccc5s4)C(=O)N32)C1` (single isomer, unassigned) [Compound 1056] and `CCCOC(=O)[C@H](C)N[P@@](=O)(Oc1ccccc1)[C@@H](F)c1ccc2sc(C(=O)N[C@H]3CCC[C@H]4CC[C@@H](C(=O)N5CC(c6cnccc6OC)C5)N4C3=O)cc2c1` (single isomer, unassigned) [Compound 1039] cannot be ordered by pIC50: > 7.00 for the first, > 7.00 for the second.

`CCCOC(=O)[C@H](C)N[P@@](=O)(Oc1ccccc1)[C@@H](F)c1ccc2sc(C(=O)N[C@H]3C[C@@H](C)C[C@H]4CC[C@@H](C(=O)N5CC(c6cnccc6C)C5)N4C3=O)cc2c1` (single isomer, unassigned) [Compound 1037] and `CCCOC(=O)[C@H](C)N[P@@](=O)(Oc1ccccc1)[C@@H](F)c1ccc2sc(C(=O)N[C@H]3C[C@H](C)C[C@H]4CC[C@@H](C(=O)N5CC(c6cnccc6OC)C5)N4C3=O)cc2c1` (single isomer, unassigned) [Compound 1040] cannot be ordered by pIC50: > 7.00 for the first, > 7.00 for the second.

First: CCCOC(=O)[C@H](C)NP(=O)(Cc1ccc2sc(C(=O)N[C@H]3C[C@@H](C)C[C@H]4CC[C@@H](C(=O)N5CC(c6cncnc6N6CCC6)C5)N4C3=O)cc2c1)Oc1ccccc1 (stereo partly drawn) [Compound 1074, propyl (((2-(((3S,6S,8R,9aR)-3-(3-(4-(azetidin-1-yl)pyrimidin-5-yl)azetidine-1-carbonyl)-8-methyl-5-oxooctahydro-1H-pyrrolo[1,2-a]azepin-6-yl)carbamoyl)benzo [b]thiophen-5-yl)methyl)(phenoxy)phosphoryl)-L-alaninate]
Second: CCCOC(=O)[C@H](C)NP(=O)(Oc1ccccc1)[C@@H](F)c1ccc2sc(C(=O)N[C@H]3CCC[C@H]4CC[C@@H](C(=O)N5CC(c6cnccc6N6CC(OC)C6)C5)N4C3=O)cc2c1 (stereo partly drawn) [Compound 1062, propyl (((R)-fluoro(2-(((3S,6S,9aS)-3-(3-(4-(3-methoxyazetidin-1-yl)pyridin-3-yl)azetidine-1-carbonyl)-5-oxooctahydro-1H-pyrrolo[1,2-a]azepin-6-yl)carbamoyl)benzo [b]thiophen-5-yl)methyl)(phenoxy)phosphoryl)-L-alaninate]
The pIC50 of the first is higher: > 7.00 for the first, 6.00 to 7.00 for the second.

First: C[C@H](NP(=O)(Oc1ccccc1)C(F)c1ccc2sc(C(=O)N[C@H]3CCC[C@H]4CC[C@@H](C(=O)N5CC(c6cnccc6F)C5)N4C3=O)cc2c1)C(=O)OCCC(F)(F)F (stereo partly drawn) [Compound 983, 3,3,3-trifluoropropyl ((fluoro(2-(((3S,6S,9aS)-3-(3-(4-fluoropyridin-3-yl)azetidine-1-carbonyl)-5-oxooctahydro-1H-pyrrolo[1,2-a]azepin-6-yl)carbamoyl)benzo [b]thiophen-5-yl)methyl)(phenoxy)phosphoryl)-L-alaninate]
Second: CCCOC(=O)[C@H](C)NP(=O)(Oc1ccccc1)C(F)c1ccc2sc(C(=O)N[C@H]3CCCC[C@H]4CC[C@@H](C(=O)N5CC(NCCOC)(c6ccccn6)C5)N4C3=O)cc2c1 (stereo partly drawn) [Compound 987, propyl ((fluoro(2-(((3S,6S,10aS)-3-(3-((2-methoxyethyl)amino)-3-(pyridin-2-yl)azetidine-1-carbonyl)-5-oxodecahydropyrrolo [1,2-a]azocin-6-yl)carbamoyl)benzo [b]thiophen-5-yl)methyl)(phenoxy)phosphoryl)-L-alaninate]
The pIC50 of the first is higher: > 7.00 for the first, 6.00 to 7.00 for the second.
